According to US5217882A, “Microbial transformation process for producing antihypertensive N2 -glucuronide products” (Merck & Co., Inc., priority 1992, dated 1993):

Molecular target: T1, Angiotensin II (A II) receptor (Oryctolagus cuniculus, UniProt P34976)
T1 construct: tissue Pel-Freeze Biologicals; host or cells: rabbit aorta, membrane preparation
T1 sequence (P34976 1-359): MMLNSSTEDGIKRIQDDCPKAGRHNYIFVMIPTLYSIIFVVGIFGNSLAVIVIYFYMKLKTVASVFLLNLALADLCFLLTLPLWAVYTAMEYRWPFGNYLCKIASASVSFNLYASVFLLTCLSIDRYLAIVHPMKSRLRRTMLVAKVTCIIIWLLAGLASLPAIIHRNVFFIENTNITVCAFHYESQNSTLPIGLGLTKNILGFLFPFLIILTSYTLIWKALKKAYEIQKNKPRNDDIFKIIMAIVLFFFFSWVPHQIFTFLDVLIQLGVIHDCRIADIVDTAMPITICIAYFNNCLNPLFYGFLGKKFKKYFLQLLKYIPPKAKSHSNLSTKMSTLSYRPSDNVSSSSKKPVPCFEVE
Experiment: Receptor binding assay using rabbit aortae membrane preparation ("IC50" assay; displacement of 125I-Sar1 Ile8-angiotensin II)
Details: 37° C. for 90 minutes, read-out: inhibitory concentration (IC50) giving 50% displacement of total specifically bound 125I-Sar1 Ile8-angiotensin II
Experimental: This assay is also referred to herein as the "IC50 " assay.
Receptor binding assay using rabbit aortae membrane preparation
Three frozen rabbit aortae (obtained from Pel-Freeze Biologicals) were suspended in 5 mM Tris-0.25M Sucrose, pH 7.4 buffer (50 ml) homogenized, and then centrifuged. The mixture was filtered through a cheesecloth and the supernatant was centrifuged for 30 minutes at 20,000 rpm at 4° C. The pellet thus obtained was resuspended in 30 ml of 50 mM Tris-5 mM MgCl2 buffer containing 0.2% Bovine Serum Albumin and 0.2 mg/ml Bacitration and the suspension was used for 100 assay tubes. Samples tested for screening were done in duplicate. To the membrane preparation (0.25 ml) there was added ^125 I-Sar^1 -Ile^8 -angiotensin II [obtained from New England Nuclear] (10 ul; 20,000 cpm) with or without the test sample and the mixture was incubated at 37° C. for 90 minutes. The mixture was then diluted with ice-cold 50 mM Tris-0.9% NaCl, pH 7.4 (4 ml) and filtered through a glass fiber filter (GF/B Whatman 2.4" diameter). The filter was soaked in scintillation cocktail (10 ml) and counted for radioactivity using Packard 2660 Tricarb liquid scintillation counter. […]

IC50: < 50 µM
Compound: CCCCc1nc(Cl)c(CO)n1Cc1ccc(-c2ccccc2-c2nnn(C3OC(C(=O)O)C(O)C(O)C3O)n2)cc1 (stereo not shown) [compound (I)]
